Assay results reported in patent publication US20220218614A1, “IONIZABLE CATIONIC LIPIDS AND LIPID NANOPARTICLES, AND METHODS OF SYNTHESIS AND USE THEREOF” (Tidal Therapeutics, Inc., priority 2020, published 2022).
Entries after “also recorded” stand apart in the source; their conditions may differ.

Tests used:
[1] = system: human CD3 T cells; test: Transfection of human CD3 T cells (CD8 and CD4 subsets) with Fab/Nb-targeted LNPs; assay type: cell-based; conditions: targeted Lipid 8 LNP (Lipid 5 in Example 43), GFP mRNA approximately 2.5 μg/mL, approximately 24 hr
Method: LNPs were prepared using the mixing process described in Example 6, the buffer exchange process described below in Example 21. Using methods similar to Example 12, hSP34 and TRX2 Fab-lipid conjugates and a non-T cell specific anti-HER2 lipid-conjugate (Nellis D F, Ekstrom D L, Kirpotin D B, Zhu J, Andersson R, Broadt T L, Ouellette T F, Perkins S C, Roach J M, Drummond D C, Hong K, Marks J D, Park J W and Giardina S L (2005) Preclinical manufacture of an anti-HER2 scFv-PEG-DSPE, liposome-inserting conjugate. 1. Gram-scale production and purification. Biotechnol Prog 21:205-220) were post-inserted at various densities (SP34 0.25-17 g/mol; TRX2 0.25-9 g/mol; SP34+TRX2 0.25-9 g/mol each conjugate; anti-HER2 17 g/mol) into LNPs containing Lipid 8 and anti-CD20 targeting CART mRNA. Transfections were performed with human CD3 T cells at approximately 2.5 μg/mL mRNA for approximately 24 hr. For FACS analysis T cells were stained with M1 antibody (Sigma, F3040) that bind a N-terminus FLAG-tag variant sequence on the TTR-023 CAR (sequence provided below) in addition to staining for CD69 (Biolegend, 310930) and CD4 (Biolegend, 344648) to differentiate CD8 from CD4 cells.
LNPs were prepared using the mixing process described in Example 6, the buffer exchange process described in Example 21. Using methods similar to Example 12, hSP34, TRX2, and Ibalizumab Fab-lipid conjugates and a non-T cell specific anti-HER2 lipid-conjugate were post-inserted at various densities (specified in FIGS. 20A and 20B into LNPs containing Lipid 8 and Cy5/GFP mRNA. Transfections were performed with human CD3 T cells at approximately 2.5 μg/mL mRNA for approximately 24 hr and stained for CD69 (Biolegend, 310930) and CD4 (Biolegend, 344648) to differentiate CD8 from CD4 cells by FACS analysis.
LNPs were prepared using the mixing process described in Example 6, the buffer exchange process described in Example 21. […] Levels of transfection of CD3 T cells was measured by flow cytometry. […]

[2] = system: IFNγ; test: Human IFNγ ELISA of T cell culture supernatants after LNP transfection; assay type: cell-based; conditions: T cells approximately 24 hr after targeted LNPs at approximately 2.5 μg/mL mRNA
Method: LNPs were prepared using the mixing process described in Example 6, the buffer exchange process described in Example 21. hSP34 and TRX2 Fab-lipid conjugates generated from methods described in Example 4 and a non-T cell specific anti-HER2 lipid-conjugate (Nellis D F, Ekstrom D L, Kirpotin D B, Zhu J, Andersson R, Broadt T L, Ouellette T F, Perkins S C, Roach J M, Drummond D C, Hong K, Marks J D, Park J W and Giardina S L (2005) Preclinical manufacture of an anti-HER2 scFv-PEG-DSPE, liposome-inserting conjugate. 1. Gram-scale production and purification. Biotechnol Prog 21:205-220) were post-inserted at various densities (SP34 0.6-17 g/mol; TRX2 3-9 g/mol; anti-HER2 17 g/mol) into LNPs containing Lipid 8, Cy5 labeled GFP mRNA and GFP mRNA (1:9 Cy5:GFP mass ratio) by adding conjugate and LNPs together and heating the solution without mixing in a thermal cycler at 60 C for 60 min and cooled to 4° C. for 3-5 min. […] After transfection, LNP binding efficiency (Cy5) and transfection efficiency (GFP) was evaluated by flow cytometry. Supernatants were measured for human IFNγ concentration using a commercially available ELISA kit under manufacturers recommended conditions (R&D Systems Duoset).
IFN-γ was assayed using an R&D Duoset […] ELISA kit, PN DY285B. […] Optical density at 450 nm was read on a Spectramax M5 plate reader. […]

| Substance | % GFP transfection and GFP expression (MFI) of CD8 and CD4 T cells, in words [1] | IFNγ secretion into supernatant, in words [2] |
| --- | --- | --- |
| SP34 NoDS Fab: anti-CD3 Fab without interchain disulfide, SEQ ID NO: 38 and 39 | higher % transfection (FIG. 65E) and higher GFP expression levels (FIG. 65F) than the SP34 DS Fab; also recorded: higher % transfection (FIG. 67A) and higher GFP expression levels | – |
| TRX4: anti-CD3 TRX4 bDS Fab, SEQ ID NO: 50 and 51 | lower levels of GFP expression | higher levels of IFNγ secretion than SP34 |
